32 molecules from patent US11998539B2, “Substituted aminoquinolones as DGKalpha inhibitors for immune activation” (Bayer Aktiengesellschaft, priority 2019, dated 2024) can be followed below.

As a reminder, the IC50 is the concentration that gives 50% inhibition.

This test deals with DGKα (Homo sapiens (Human), UniProt P23743). Briefly: Human DGKα kinase activity inhibition assay (ADP-Glo). Particulars: recombinant full-length human DGKα, 55 μM ATP, 7 μM 1,2-dioleoyl-sn-glycerol, read-out: IC50 values of examples in in vitro human DGKa kinase activity inhibition assays. The class given is biochemical. In short, it runs like this: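 Recombinant full-length human DGKα (C-terminal FLAG, from insect cells) phosphorylated 1,2-dioleoyl-sn-glycerol presented in octyl-glucopyranoside micelles. ADP formed was quantified by ADP-Glo luminescence. Compounds were added from 100-fold DMSO stocks.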
DGKα, sequence (P23743 other isoform, or with tags, fused parts or gaps): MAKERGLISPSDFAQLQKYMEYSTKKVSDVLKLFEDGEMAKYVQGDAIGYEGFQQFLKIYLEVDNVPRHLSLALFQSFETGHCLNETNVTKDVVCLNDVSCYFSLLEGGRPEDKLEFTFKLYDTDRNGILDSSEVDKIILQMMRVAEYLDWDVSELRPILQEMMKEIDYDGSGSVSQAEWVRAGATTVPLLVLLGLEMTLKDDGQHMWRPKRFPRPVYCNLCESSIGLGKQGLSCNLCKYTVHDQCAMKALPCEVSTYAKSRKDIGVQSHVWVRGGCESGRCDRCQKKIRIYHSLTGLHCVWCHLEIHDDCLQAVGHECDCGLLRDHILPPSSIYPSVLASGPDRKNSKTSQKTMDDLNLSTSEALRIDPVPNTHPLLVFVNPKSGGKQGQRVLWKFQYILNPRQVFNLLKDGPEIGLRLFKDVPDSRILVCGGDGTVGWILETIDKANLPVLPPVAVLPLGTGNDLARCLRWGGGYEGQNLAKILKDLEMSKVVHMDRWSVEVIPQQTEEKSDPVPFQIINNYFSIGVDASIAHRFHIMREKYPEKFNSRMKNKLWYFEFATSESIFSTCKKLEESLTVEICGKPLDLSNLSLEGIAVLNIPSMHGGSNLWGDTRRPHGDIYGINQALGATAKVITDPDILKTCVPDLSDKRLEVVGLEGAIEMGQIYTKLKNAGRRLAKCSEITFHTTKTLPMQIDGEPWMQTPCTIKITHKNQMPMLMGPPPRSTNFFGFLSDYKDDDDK
Consider `Cc1ccc2c(c1)c(N1CCC(c3nc4cc(Cl)ccc4o3)CC1)c(C#N)c(=O)n2C` [Example 185, 4-[4-(5-chloro-1,3-benzoxazol-2-yl)piperidin-1-yl]-1,6-dimethyl-2-oxo-1,2-dihydroquinoline-3-carbonitrile], for which the half-maximal inhibitory concentration (IC50) amounted to 2.9 nM.
Then `COCCOc1ccc2c(N3CCC(c4nc5cc(C)ccc5o4)CC3)c(C(N)=O)c(=O)n(C)c2c1` [Example 480, 7-(2-methoxyethoxy)-1-methyl-4-[4-(5-methyl-1 3-benzoxazol-2-yl)piperidin-1-yl]-2-oxo-1,2-dihydroquinoline-3-carboxamide], with 9.8 nM; and `Cn1c(=O)c(C#N)c(N2CCC(c3nc4c(F)cccc4o3)CC2)c2ccccc21` [Example 26, 4-[4-(4-fluoro-1,3-benzoxazol-2-yl)piperidin-1-yl]-1-methyl-2-oxo-1,2-dihydroquinoline-3-carbonitrile], with 10 nM.
In the case of `CC(C)c1ccc2oc(C3(C)CCN(c4c(C#N)c(=O)n(C)c5ccccc45)CC3)nc2c1` [Example 21, 1-methyl-4-{4-methyl-4-[5-(propan-2-yl)-1,3-benzoxazol-2-yl]piperidin-1-yl}-2-oxo-1,2-dihydroquinoline-3-carbonitrile], the IC50 was determined as 5.2 nM.
With `Cn1c(C2CCN(c3c(C#N)c(=O)n(C)c4ccccc34)CC2)nc2ccccc21` [Example 147, 1-methyl-4-[4-(1-methyl-1H-benzimidazol-2-yl)piperidin-1-yl]-2-oxo-1,2-dihydroquinoline-3-carbonitrile] the figure was 358 nM; with `Cc1ccc2oc(C3CCN(c4c(C#N)c(=O)n(C)c5cc(OC6CCOC6)ccc45)CC3)nc2c1` (single isomer, unassigned) [Example 381, 1-methyl-4-[4-(5-methyl-1,3-benzoxazol-2-yl)piperidin-1-yl]-2-oxo-7[(oxolan-3-yl)oxy]-1,2-dihydroquinoline-3-carbonitrile], 7.4 nM.
For `Cn1c(=O)c(C#N)c(N2CCC(c3nnc(-c4cccc(C(F)(F)F)c4)o3)CC2)c2cc(Br)ccc21` [Example 435, 6-bromo-1-methyl-2-oxo-4-(4-{5-[3-(trifluoromethyl)phenyl]-1,3,4-oxadiazol-2-yl}piperidin-1-yl)-1,2-dihydroquinoline-3-carbonitrile], the IC50 came to 4.3 nM.
With `Cc1ccc2oc(C3(C)CCN(c4c(C#N)c(=O)n(C)c5c(C#N)cccc45)CC3)nc2c1` [Example 163, 1-methyl-4-[4-methyl-4-(5-methyl-1,3-benzoxazol-2-yl)piperidin-1-yl]-2-oxo-1,2-dihydroquinoline-3,8-dicarbonitrile], the IC50 was determined as 146 nM.
Take `Cn1c(=O)c(C#N)c(N2CCC(c3nc4ccc(Cl)nc4s3)CC2)c2ccccc21` [Example 19, 4-[4-(5-chloro[1,3]thiazolo[5,4-b]pyridin-2-yl)piperidin-1-yl]-1-methyl-2-oxo-1,2-dihydroquinoline-3-carbonitrile]: the half-inhibitory concentration (IC50) was found to be 15 nM.
In the case of `Cc1cc(F)cc(C2CCN(c3c(C#N)c(=O)n(C)c4ccccc34)CC2)c1` [Example 51, 4-[4-(3-fluoro-5-methylphenyl)piperidin-1-yl]-1-methyl-2-oxo-1,2-dihydroquinoline-3-carbonitrile], the IC50 was found to be 8.3 nM.
Then `Cc1ccc2oc(C3CCN(c4c(C#N)c(=O)n(C)c5ccc(F)cc45)CC3)nc2c1` [Example 217, 6-fluoro-1-methyl-4-[4-(5-methyl-1,3-benzoxazol-2-yl)piperidin-1-yl]-2-oxo-1,2-dihydroquinoline-3-carbonitrile], with 1 nM; and `Cc1ccc2oc(C3CCN(c4c(C#N)c(=O)n(C)c5c(Cl)cccc45)CC3)nc2c1` [Example 232, 8-chloro-1-methyl-4-[4-(5-methyl-1,3-benzoxazol-2-yl)piperidin-1-yl]-2-oxo-1,2-dihydroquinoline-3-carbonitrile], with 163 nM.
With `Cc1ccc2oc(C3(C)CCN(c4c(C#N)c(=O)n(C)c5ccc(OC6CC6)cc45)CC3)nc2c1` [Example 274, 6-(cyclopropyloxy)-1-methyl-4-[4-methyl-4-(5-methyl-1,3-benzoxazol-2-yl)piperidin-1-yl]-2-oxo-1,2-dihydroquinoline-3-carbonitrile], the IC50 worked out at 152 nM.
With `Cn1c(=O)c(C#N)c(N2CCC(c3nc4ccccc4o3)CC2)c2ccc(F)cc21` [Example 236, 4-[4-(1,3-benzoxazol-2-yl)piperidin-1-yl]-7-fluoro-1-methyl-2-oxo-1,2-dihydroquinoline-3-carbonitrile] the figure was 4.3 nM; with `Cn1c(=O)c(C#N)c(N2CCC(c3cccc4nccnc34)CC2)c2ccccc21` [Example 79, 1-methyl-2-oxo-4-[4-(quinoxalin-5-yl)piperidin-1-yl]-1,2-dihydroquinoline-3-carbonitrile], 104 nM.
As for `Cn1c(=O)c(C#N)c(N2CCC(c3cccc(C4CC4)c3)CC2)c2ccccc21` [Example 45, 4-[4-(3-cyclopropylphenyl)piperidin-1-yl]-1-methyl-2-oxo-1,2-dihydroquinoline-3-carbonitrile], the IC50 worked out at 2.1 nM.
Turning to `Cn1ccc2cc(C3CCN(c4c(C#N)c(=O)n(C)c5ccccc45)CC3)ccc21` [Example 50, 1-methyl-4-[4-(1-methyl-1H-indol-5-yl)piperidin-1-yl]-2-oxo-1,2-dihydroquinoline-3-carbonitrile], the IC50 was 8.3 nM.
For the molecule `COC1(c2cccc(Cl)c2)CCN(c2c(C(N)=O)c(=O)n(C)c3ccccc23)CC1` [Example 451, 4-[4-(3-chlorophenyl)-4-methoxypiperidin-1-yl]-1-methyl-2-oxo-1,2-dihydroquinoline-3-carboxamide], the IC50 amounted to 163 nM.
Then `Cc1ccc2oc(C3CCN(c4c(C#N)c(=O)n(C)c5cc(O)c(C)cc45)CC3)nc2c1` [Example 428, 7-hydroxy-1,6-dimethyl-4-[4-(5-methyl-1,3-benzoxazol-2-yl)piperidin-1-yl]-2-oxo-1,2-dihydroquinoline-3-carbonitrile], with 0.6 nM; and `Cn1c(=O)c(C#N)c(N2CCC(C)(c3nc4ccccc4o3)CC2)c2ccc(Cl)cc21` [Example 226, 4-[4-(1,3-benzoxazol-2-yl)-4-methylpiperidin-1-yl]-7-chloro-1-methyl-2-oxo-1,2-dihydroquinoline-3-carbonitrile], with 1.3 nM; and `COc1ccc(C2CCN(c3c(C#N)c(=O)n(C)c4ccc(C#N)cc34)CC2)cc1` [Example 173, 4-[4-(4-methoxyphenyl)piperidin-1-yl]-1-methyl-2-oxo-1,2-dihydroquinoline-3,6-dicarbonitrile], with 12 nM.
On to `Cc1ccc2c(N3CCC(c4ccccc4)CC3)c(C#N)c(=O)n(C)c2c1` [Example 255, 1,7-dimethyl-2-oxo-4-(4-phenylpiperidin-1-yl)-1,2-dihydroquinoline-3-carbonitrile], for which the IC50 was found to be 18 nM.
With `Cc1ccc2oc(C3(C)CCN(c4c(C#N)c(=O)n(C)c5ccc(N6C[C@H](O)CC6=O)cc45)CC3)nc2c1` [Example 277, 6-[(4R)-4-hydroxy-2-oxopyrrolidin-1-yl]-1-methyl-4-[4-methyl-4-(5-methyl-1,3-benzoxazol-2-yl)piperidin-1-yl]-2-oxo-1,2-dihydroquinoline-3-carbonitrile], the IC50 is 243 nM.
With `Cn1c(=O)c(C#N)c(N2CCC(c3nc4ccccc4o3)CC2)c2cccc(F)c21` [Example 155, 4-[4-(1,3-benzoxazol-2-yl)piperidin-1-yl]-8-fluoro-1-methyl-2-oxo-1,2-dihydroquinoline-3-carbonitrile] the figure was 60 nM; with `COCc1ccc2c(N3CCC(C)(c4nc5cc(C)ccc5o4)CC3)c(C#N)c(=O)n(C)c2c1` [Example 212, 7-(methoxymethyl)-1-methyl-4-[4-methyl-4-(5-methyl-1,3-benzoxazol-2-yl)piperidin-1-yl]-2-oxo-1,2-dihydroquinoline-3-carbonitrile], 0.3 nM; with `Cn1cc(C(=O)C(F)(F)F)c2cc(C3CCN(c4c(C#N)c(=O)n(C)c5ccccc45)CC3)ccc21` [Example 72, 1-methyl-4-{4-[1-methyl-3-(trifluoroacetyl)-1H-indol-5-yl]piperidin-1-yl}-2-oxo-1,2-dihydroquinoline-3-carbonitrile], 30 nM.
With `Cc1ccc2oc(C3CCN(c4c(C#N)c(=O)n(C)c5cc(O)ccc45)CC3)nc2c1` [Example 293, 7-hydroxy-1-methyl-4-[4-(5-methyl-1,3-benzoxazol-2-yl)piperidin-1-yl]-2-oxo-1,2-dihydroquinoline-3-carbonitrile] the figure was 2.1 nM; with `Cn1c(=O)c(C#N)c(N2CCC(c3ccc(OCC(F)(F)F)cc3)CC2)c2ccccc21` [Example 37, 1-methyl-2-oxo-4-{4-[4-(2,2,2-trifluoroethoxy)phenyl]piperidin-1-yl}-1,2-dihydroquinoline-3-carbonitrile], 1.1 nM.
On to `Cn1c(=O)c(C#N)c(N2CCC(c3nc4ccccc4s3)CC2)c2ccccc21` [Example 12, 4-[4-(1,3-benzothiazol-2-yl)piperidin-1-yl]-1-methyl-2-oxo-1,2-dihydroquinoline-3-carbonitrile], for which the IC50 was 3.5 nM.
With `Cc1ccc2oc(C3(C)CCN(c4c(C#N)c(=O)n(C)c5c(C6CC6)cccc45)CC3)nc2c1` [Example 272, 8-cyclopropyl-1-methyl-4-[4-methyl-4-(5-methyl-1,3-benzoxazol-2-yl)piperidin-1-yl]-2-oxo-1,2-dihydroquinoline-3-carbonitrile] the figure was 113 nM; with `COc1ccc(C2CCN(c3c(C#N)c(=O)n(C)c4cc(C5COC5)ccc34)CC2)cc1` [Example 97, 4-[4-(4-methoxyphenyl)piperidin-1-yl]-1-methyl-7-(oxetan-3-yl)-2-oxo-1,2-dihydroquinoline-3-carbonitrile], 33 nM.
Then `Cn1c(=O)c(C#N)c(N2CCC(O)(c3cccc(C(F)(F)F)c3)CC2)c2ccccc21` [Example 152, 4-{4-hydroxy-4-[3-(trifluoromethyl)phenyl]piperidin-1-yl}-1-methyl-2-oxo-1,2-dihydroquinoline-3-carbonitrile], with 1070 nM.
